Experimental data: ChEMBL document CHEMBL1649365, “Molecular modeling studies on imidazo[4,5-b]pyridine derivatives as Aurora A kinase inhibitors using 3D-QSAR and docking approaches” (Eur J Med Chem, 2011)

target: T1, Aurora kinase A (Homo sapiens, UniProt O14965); assay: Inhibition of Aurora A
T1 sequence (O14965 whole entry): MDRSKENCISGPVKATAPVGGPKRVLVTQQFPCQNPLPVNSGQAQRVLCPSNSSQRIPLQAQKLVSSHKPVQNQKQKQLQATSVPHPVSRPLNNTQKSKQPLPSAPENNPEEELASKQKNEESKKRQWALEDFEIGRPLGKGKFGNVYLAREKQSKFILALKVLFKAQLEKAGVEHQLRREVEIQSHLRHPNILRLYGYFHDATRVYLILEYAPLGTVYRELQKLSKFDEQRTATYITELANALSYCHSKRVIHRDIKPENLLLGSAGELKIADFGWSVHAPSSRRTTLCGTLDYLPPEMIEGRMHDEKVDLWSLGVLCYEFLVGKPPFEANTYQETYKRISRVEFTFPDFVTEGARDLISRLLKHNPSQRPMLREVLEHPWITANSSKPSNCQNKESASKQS

SMILES	IC50
Cc1cc(CN2CCN(c3c(Cl)cnc4nc(-c5ccc(OCCO)cc5)[nH]c34)CC2)no1	0.029 µM
O=C(CN1CCN(c2c(Br)cnc3[nH]cnc23)CC1)Nc1nccs1	0.081 µM
CC(c1ccncc1)N1CCN(c2c(Br)cnc3[nH]c(-c4ccc(N(C)C)cc4)nc23)CC1 (configuration not stated)	0.055 µM
CN(C)c1ccc(-c2nc3c(N4CCN(CC(=O)Nc5ccccc5)CC4)c(Br)cnc3[nH]2)cc1	0.277 µM
COc1ccc(-c2nc3c(N4CCN(Cc5ccncc5)CC4)c(Br)cnc3[nH]2)cc1	0.009 µM
COc1ccc(-c2nc3c(N4CCN(Cc5coc(C(C)C)n5)CC4)c(Br)cnc3[nH]2)cc1	0.081 µM
CC(=O)c1cccc(-c2ccc(-c3nc4ncc(Br)c(N5CCN(Cc6cc(C)on6)CC5)c4[nH]3)cc2)c1	0.014 µM
Cc1cc(CN2CCN(c3c(Br)cnc4[nH]c(-c5ccc(N6CCNCC6)cc5)nc34)CC2)no1	0.01 µM
Cc1cc(CN2CCN(c3c(Cl)cnc4nc(-c5ccc(N6CCN(C)CC6)cc5)[nH]c34)CC2)no1	0.01 µM
Cc1cc(CN2CCN(c3c(Br)cnc4[nH]c(-c5ccc(Cn6cccn6)cc5)nc34)CC2)no1	0.01 µM
Cc1cc(CN2CCN(c3c(Cl)cnc4nc(-c5ccc(Cn6cccn6)cc5)[nH]c34)CC2)no1	0.003 µM
c1ccc(-c2ccc(-c3nc4cccnc4[nH]3)cc2)nc1	4.4 µM
